In the METLIN SMRT retention time set (Domingo-Almenara et al. 2019) one finds RP-LC retention time data, which are given here for 79 compounds.

The nature of this series: gradient 5% acetonitrile 3 min, to 50% in 2 min, to 85% in 15 min, held 3 min, 100 µL/min. The settings on record: column: Zorbax Extend-C18 2.1 x 50 mm; eluents: water / acetonitrile, 0.1% formic acid. The essentials: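 Retention times of pure standards were taken from adduct peaks that were selected by computer and manually inspected. Over 3 months, mixtures of ~100 molecules were run by HPLC–quadrupole time-of-flight mass spectrometry in positive and negative ionization mode. The Zorbax Extend-C18 column (2.1 × 50 mm, 1.8 μm) ran at 100 μL/min in water and acetonitrile, each containing 0.1% formic acid, with 40 μL dead volume and 900 μL dwell volume.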
In the case of `CCOc1ccccc1-c1noc(CN2C(=O)COc3cc(C)ccc32)n1`, the RP-LC retention time stood at 1050 s.
Compound `COC(=O)c1ccc(NC(=O)Cn2cccc(-c3nc(-c4ccc(Cl)cc4)no3)c2=O)cc1` yielded an RP-LC retention time of 934 s.
`CCn1c(=O)n(CC)c2cc(S(=O)(=O)c3ccc(C)cc3)c(NC(C)=O)cc21` registered an RP-LC retention time of 759 s.
The figure for `Cc1cccc(N2CCN(S(=O)(=O)c3ccc4c(c3)CCCC(=O)N4)CC2C)c1` (centres undefined) is 881 s; for `CCc1noc(NC(C)=O)c1-c1ccc(C)c(S(=O)(=O)Nc2cccc(C(F)(F)F)c2)c1` it is 889 s; for `CCC(=O)N1CCc2cc(N3CC(C(=O)N4CCC(C)CC4)CC3=O)ccc21` (centres undefined) it is 726 s.
`CCN(Cc1ccccc1)c1ccc(-c2noc(CN3CCN(C)CC3)n2)cn1` had an RP-LC retention time of 670 s.
Take `COc1ccc(CC(=O)NCCc2cn(C)c3ncccc23)c(Cl)c1`: the RP-LC retention time was determined as 690 s.
Consider `CC(C)c1cccc(NC(=O)C2CCN(C(=O)c3ncn4c3COC(c3ccccc3)C4)CC2)c1` (centres undefined), for which the RP-LC retention time was 921 s.
To `CCCc1ccc(S(=O)(=O)N2CCC(c3nc4ccncc4n3CCOC)C2)cc1` (centres undefined) belongs 610 s.
To `Cc1csc(-c2cc(S(=O)(=O)NC(C)C)cn2CC(=O)N2CCCC2)n1` belongs 769 s; to `CC(=O)Nc1cc(C(=O)NCc2nn(Cc3ccccc3)c3ccccc23)ccc1C`, 794 s; to `Cc1c(Cl)cccc1NC(=O)N1CCc2nc(-c3ccc(F)cc3)ncc2C1`, 996 s.
To `CCOC(=O)CSc1nnc(-c2cccnc2)n1-c1ccccc1` belongs 654 s; to `CCCN1C(=O)COc2ccc(-c3noc(-c4cccc(N(C)C)c4)n3)cc21`, 1300 s; to `COc1ccc(C2Cn3cnc(C(=O)N4CCC(C(=O)NC5CCCC5)CC4)c3CO2)cc1` (centres undefined), 705 s.
Compound `CCn1c(CCNC(=O)c2ccc(F)cc2F)nc2cccnc21` displayed an RP-LC retention time of 641 s.
Consider `CNC(=O)N1CC2(CCCCC2)CC1COCc1ccccc1` (centres undefined), for which the RP-LC retention time turned out to be 1060 s.
On to `COCCn1cc2c3c(cccc31)CN(C(=O)Nc1cc(F)cc(F)c1)CC2`, for which the RP-LC retention time is 963 s.
To `CCOC(=O)Cc1csc(NC(=O)c2csc(Nc3cccc(Cl)c3)n2)n1` belongs 952 s; to `CCN1C(=O)C2(CCN(S(=O)(=O)c3cc(C)ccc3C)CC2)c2ccccc21`, 1110 s; to `O=c1c2nc(-c3ccc(F)cc3)cn2ccn1-c1ccc(Cl)cc1`, 867 s.
With `CCOc1cc(=O)c(C(=O)N2CCC(C(N)=O)CC2)nn1-c1ccc(F)c(F)c1`, the RP-LC retention time came out at 625 s.
On to `CCC(C)N(CC(=O)N(Cc1ccco1)CC1CCCO1)C(=O)c1ccc(F)cc1` (centres undefined), for which the RP-LC retention time worked out at 864 s.
In turn, `Cc1oc(-c2[nH]ncc2C(=O)N(C)C)cc1S(=O)(=O)N1CCOCC1` returned an RP-LC retention time of 604 s.
To `CCC1CCCCN1C(=O)c1cnc2nc(C)ccc2c1Nc1ccc2c(c1)OCO2` (centres undefined) belongs 623 s; to `Cc1c(Cl)cccc1NC(=O)C(C)n1cnc2nc3c(cc2c1=O)CCCC3` (centres undefined), 805 s.
To `CC(C)N1CCc2c(sc(NC(=O)c3ccc([N+](=O)[O-])s3)c2C(N)=O)C1` belongs 573 s; to `COCCNC(=O)Cn1c(=O)c2cccn2c2ccccc21`, 655 s.
The compound `CCOc1ccccc1NC(=O)CSc1ncnc2c1nnn2-c1ccc(OC)cc1` came in with an RP-LC retention time of 1030 s.
Turning to `Cc1oc(-c2ccccc2)nc1Cc1noc(Cc2ccc(F)cc2)n1`, the RP-LC retention time was determined as 1090 s.
As to `O=C(c1ccc(F)c(F)c1)N1CCCC1c1nc(-c2ccccc2)no1` (centres undefined), the RP-LC retention time turned out to be 653 s.
The figure for `O=C(c1ccc(Br)cc1)N1CCC(n2c(-c3ccco3)nc3cccnc32)C1` (centres undefined) is 827 s; for `Cn1nccc1-c1cccc(-c2noc(-c3cc(Cl)ccc3F)n2)c1` it is 1210 s; for `O=C(NCc1ccncc1)c1ccc(-c2cccs2)nc1` it is 588 s.
On to `COCCn1c(-c2ccccc2)cnc1SCC(=O)Nc1ccccc1`, for which the RP-LC retention time came out at 669 s.
Compound `Cc1ccc(N2C(=O)CN(S(C)(=O)=O)CC2(C)C(=O)NCc2ccc(F)cc2)cc1Cl` (centres undefined) yielded an RP-LC retention time of 877 s.
To `NC(=O)C1CCN(S(=O)(=O)c2cc(-c3noc(C4CCC4)n3)cs2)CC1` belongs 777 s.
Compound `CC(=O)c1ccc(N2CCN(C(=O)c3ccc(-n4cccn4)nn3)CC2)cc1` yielded an RP-LC retention time of 695 s.
The figure for `COC1CCN(C(=O)NC(C)C)CC1` is 599 s; for `COc1ccc(OC)c(NC(=O)N2CCN(c3cc(-c4ccccc4)ncn3)CC2)c1` it is 667 s.
`COCCNc1nnc(-c2nc(-c3ccc(F)cc3)no2)c2ccccc12` registered an RP-LC retention time of 801 s.
Compound `Cc1ccc(-c2noc(Cc3nnc(-c4ccccc4)o3)n2)cc1` returned an RP-LC retention time of 1040 s.
To `O=C(NCCn1ncc2c(=O)n(Cc3ccccc3F)cnc21)c1ccc2c(c1)OCO2` belongs 678 s; to `COc1cccc(CNC(=O)Nc2cccc(-c3ccc(N4CCCCC4)nn3)c2)c1`, 702 s.
`Cc1cc(C(=O)N2CCC(c3nc(-c4ccccc4)no3)C2)n[nH]1` (centres undefined) displayed an RP-LC retention time of 727 s.
In the case of `COc1cn(CC(=O)NCc2ccc3c(c2)OCO3)c(CSc2ccccc2)cc1=O`, the RP-LC retention time is 618 s.
Turning to `COc1ccccc1NC(=O)CN1c2ccc(F)cc2-c2ccccc2S1(=O)=O`, the RP-LC retention time was 1000 s.
To `CCN(CC)CCNC(=O)Cc1cc(-c2ccc(F)cc2F)on1` belongs 556 s.
To `Cc1ccc(C2c3[nH]c4ccccc4c3CCN2C(=O)Cc2cccs2)cc1` (centres undefined) belongs 988 s; to `Cc1ccc(C(=O)NCC2CCCO2)cc1` (centres undefined), 642 s; to `Cn1c(CCNC(=O)c2ccccc2F)nc2cccnc21`, 591 s.
To `CCn1c(=O)n(CC(=O)NCCN2CCC(C)CC2)c(=O)c2cnc(-c3ccc(Cl)cc3)nc21` belongs 776 s; to `CCc1ccc(N2CC(c3noc(-c4cccs4)n3)CC2=O)cc1` (centres undefined), 1010 s.
Regarding `COCCCNC(=O)c1ccc2nc(CCc3ccc(NC(C)=O)cc3)[nH]c2c1`, the RP-LC retention time came to 567 s.
For the compound `CC1CCN(S(=O)(=O)c2ccc(-c3nnc(C(=O)NC(C)C)o3)cc2)CC1`, the RP-LC retention time was determined as 934 s.
`CC(C)CN(Cc1cccnc1)C1CN(S(=O)(=O)Cc2ccccc2F)C1` returned an RP-LC retention time of 734 s.
To `CCN1C(=O)C2(CCN(C(=O)c3cc(C)n(C)n3)CC2)c2ccccc21` belongs 750 s.
`COc1cc2c(cc1OC)C(C(=O)NCc1ccccn1)C1c3ccccc3CCN1C2=O` (centres undefined) returned an RP-LC retention time of 616 s.
Regarding `Cc1ccc(CNC(=O)C2CCCN(c3nccnc3Sc3ccc(C)cc3)C2)cc1` (centres undefined), the RP-LC retention time came to 1090 s.
To `Cc1nc([C@H]2CCN(Cc3cc(Cl)ccc3F)C[C@H]2N(C)C)n[nH]1` belongs 567 s; to `COCCc1noc(C2Cc3ccccc3N2C(=O)NCC(C)C)n1` (centres undefined), 859 s.
The figure for `CC(=O)Nc1ccc(S(=O)(=O)N2CCC3(CC2)Nc2cc(F)ccc2-n2cccc23)cc1` is 967 s; for `Cc1cc(C)cc(C(=O)NCc2ccc3c(c2)ncn3C)c1` it is 615 s; for `Cc1ccc(N(Cc2nc3nc(C)c(Cl)c(C)n3n2)C(=O)c2ccco2)cc1` it is 887 s.
The figure for `CC(C)(C)C(=O)NCc1cccnc1-c1ccc(F)cc1` is 614 s; for `Cc1[nH]c(C)c(S(=O)(=O)N2CCC(C(=O)NCc3cccs3)CC2)c1C(=O)N1CCCC1` it is 664 s; for `COc1ccc(N2CCN(c3ncccc3-c3nc(C)no3)CC2)cc1` it is 736 s.
In turn, `Cc1ccc(S(=O)(=O)c2cnc(N3CCN(c4ccccc4)CC3)nc2N)cc1C` yielded an RP-LC retention time of 1110 s.
`O=C(CN1C(=O)C2CCCCN2c2ccc(S(=O)(=O)N3CCCCC3)cc21)NCc1ccccc1` (centres undefined) came in with an RP-LC retention time of 988 s.
`Cc1nnc(N2CCCC(C(=O)NCc3cccnc3)C2)c2nn(-c3ccccc3)c(C)c12` (centres undefined) showed an RP-LC retention time of 579 s.
For `C(=C/c1nc2ccccc2o1)/c1ccc2c(c1)OCO2`, the RP-LC retention time was 1010 s.
The figure for `CN1C(=O)NC2(CCN(C(=O)C3c4ccccc4Oc4ccccc43)CC2)C1=O` is 705 s; for `CCOC(=O)CNC(=O)N1CCN(c2nc3ccccc3n2Cc2ccccc2)CC1` it is 656 s; for `O=C(Cc1cccs1)N1CCc2nn(CC3CC3)c(=O)n2CC1` it is 676 s.
The figure for `CCN1C(=O)c2cc(S(=O)(=O)NCc3cccc(C)c3)ccc2Oc2cccnc21` is 1030 s; for `Cc1ccn2c(Nc3ccc4c(c3)OCCO4)c(-c3ccc(N(C)C)cc3)nc2c1` it is 734 s.
To `COc1ccc(-c2nc3ncccn3c2Nc2c(C)cccc2C)cc1` belongs 765 s; to `COc1ccc(-c2cc(C(=O)NC3CCCCC3)nn2C2CCS(=O)(=O)C2)cc1` (centres undefined), 885 s.
